As usually defined, the GI50 is the concentration giving 50% growth inhibition. Broadly, the TGI is the concentration at which net growth stops. A higher TGI goes with lower sensitivity of the cells.

Each structure is given as a SMILES string. Several values for one entry are separate records, joined by “and”; a condition that tells them apart may be missing. Equal values may be shown once.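 1) Cells in 96-well plates. 2) Compound, 48 h, 5 concentrations. 3) Linear interpolation between surrounding doses. 4) Unreached endpoint = highest concentration. Here, GI50 denotes the concentration required for 50% inhibition of growth. Definition used: TGI = concentration required for complete inhibition of growth.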

The subject of one assay is SF-268 CNS. The assay is described as follows: DTP human tumour cell line panel, 48 h.
For the compound `C=C1CCC2C(/C=C(\C)CCC1O)OC(=O)C2C` (configuration not stated), the GI50 was more than 100 µM and the TGI was more than 100 µM.

The compound `O=C1NC2(CCCC2)C(=O)C12CCCC2` gave a TGI of more than 100 µM.

On to `O=C1CCCN(c2ccccc2)N1`, for which the TGI is more than 100 µM.

In turn, `CN(C)/C(=N/C(=S)Nc1ccccc1)SCc1ccccc1` returned a TGI of more than 100 µM.

`CCOC(=O)C1=C(C)Nc2ccccc2S1`: the TGI was more than 100 µM.

`CCOC(=O)CC1=Nc2ccccc2SC1`: the TGI came to 1.56 µM.

Turning to `C=CCSC[C@H](NC(=O)COc1ccccc1)C(=O)NC(C(=O)OCc1ccc([N+](=O)[O-])cc1)=C(C)C`, the TGI was more than 100 µM.

The test system of a further assay is SK-MEL-28 melanoma. The assay is described as follows: DTP human tumour cell line panel, 48 h.
`C[C@@H]1CC[C@H]2C(COCC3=C(C(F)(F)F)O[C@@H]4O[C@@]5(C)CC[C@H]6[C@H](C)CC[C@@H]3[C@@]46OO5)=C(C(F)(F)F)O[C@@H]3O[C@@]4(C)CC[C@@H]1[C@]32OO4` displayed a TGI of more than 100 µM.

Consider `CC(=O)OCC1OC(O[C@@H]2C[C@H]3C(C)(C)[C@H](OC(C)=O)CC[C@]3(C)[C@H]3CCC4=C([C@@H](C)C[C@@H](O)[C@H](O)C(C)(C)O)CC[C@@]4(C)[C@@]32C)C(O)C(O)C1O` (some centres not stated), for which the GI50 is 17 µM and the TGI was found to be 30.9 µM.

With `CCOc1ccc(NC(=O)CC2Sc3ccccc3NC2=O)cc1` (configuration not stated), the TGI is more than 100 µM.

`C1COCCN1.C1COCCN1.N.N.[Cl-].[Pt+2]`: the GI50 is more than 100 µM and the TGI is more than 100 µM.

Compound `Cc1ccccc1C(C#N)C(=O)C(=O)Nc1nc([N+](=O)[O-])cs1` (configuration not stated) had a TGI of more than 100 µM.

Take `C=C1C(=O)O[C@H]2[C@H]1CC/C(CNC(=O)c1c[nH]c3ccc(F)cc13)=C\CC[C@@]1(C)O[C@@H]21`: the GI50 was 1.33 µM and the TGI turned out to be 3.16 µM.

`COC(=O)C(c1[nH]nc2ccccc12)C(C(=O)OC)c1[nH]nc2ccccc12` (configuration not stated) displayed a TGI of more than 100 µM.

Turning to `C#CCNC(=O)NC(CCCNC(=O)OCc1ccccc1)C(=O)OCc1ccccc1` (configuration not stated), the TGI is more than 100 µM.

`O=c1[nH]c2ccccc2cc1C(Cl)=C(Cl)Cl` registered a TGI of more than 100 µM.

Turning to `O=[N+]([O-])[C@@H]1C2C=CC(C2)[C@H]1Cl` (some centres not stated), the TGI was more than 100 µM.

In turn, `COC(=O)C(C#N)=C1c2ccccc2Oc2ccccc21` returned a TGI of more than 100 µM.

The compound `N#CC1(c2nc3ccccc3o2)C(=O)C(=O)N(C2C3CC4CC(C3)CC2C4)C(=O)C1=O` (configuration not stated) displayed a TGI of more than 100 µM.

`O=C1NC(c2ccc(O)cc2)C2CCC1C2` (configuration not stated): the TGI is more than 100 µM.

Compound `CCOC(=O)C1(CC)CCCCC(=O)N1` (configuration not stated) registered a TGI of more than 100 µM.

`C=CC1=CSNN1` yielded a TGI of more than 100 µM.

Compound `O=C(C#Cc1c[nH]c(=O)[nH]c1=O)c1ccccc1Cl` showed a TGI of 32 µM. This lies in the double-digit micromolar range.

`CC(=O)OC1=C2CC3(C)OC(=O)CC(C)(C)C3=CC=C2C=C(C(C)C)C1=O` (configuration not stated): the total growth inhibition concentration (TGI) was found to be 1.31 µM. Compared with the last compound, the TGI is about 24-fold lower.

The compound `CCCCCCCCCCCCCCCC(=O)NCC(COP(=O)([O-])OCC[N+](C)(C)C)OCC` (configuration not stated) registered a TGI of 36.6 µM.

With `C=C1CCC2C(/C=C(\C)CCC1O)OC(=O)C2C` (configuration not stated), the GI50 is more than 100 µM and the TGI was more than 100 µM.

As for `O=C1NC2(CCCC2)C(=O)C12CCCC2`, the TGI is more than 100 µM.

In turn, `O=C1CCCN(c2ccccc2)N1` displayed a TGI of more than 100 µM.

Compound `CN(C)/C(=N/C(=S)Nc1ccccc1)SCc1ccccc1` yielded a TGI of more than 100 µM.

Take `CCOC(=O)C1=C(C)Nc2ccccc2S1`: the TGI is more than 100 µM.

For `CCOC(=O)CC1=Nc2ccccc2SC1`, the TGI was 2.73 µM.

`C=CCSC[C@H](NC(=O)COc1ccccc1)C(=O)NC(C(=O)OCc1ccc([N+](=O)[O-])cc1)=C(C)C` displayed a TGI of more than 100 µM.

Another assay has as its system SK-OV-3 ovarian. The assay is described as follows: DTP human tumour cell line panel, 48 h.
In the case of `C[C@@H]1CC[C@H]2C(COCC3=C(C(F)(F)F)O[C@@H]4O[C@@]5(C)CC[C@H]6[C@H](C)CC[C@@H]3[C@@]46OO5)=C(C(F)(F)F)O[C@@H]3O[C@@]4(C)CC[C@@H]1[C@]32OO4`, the GI50 was more than 100 µM and the TGI is more than 100 µM.

In the case of `CC(=O)OCC1OC(O[C@@H]2C[C@H]3C(C)(C)[C@H](OC(C)=O)CC[C@]3(C)[C@H]3CCC4=C([C@@H](C)C[C@@H](O)[C@H](O)C(C)(C)O)CC[C@@]4(C)[C@@]32C)C(O)C(O)C1O` (some centres not stated), the GI50 is 17.9 µM and the TGI is 32.1 µM.

As for `CCOc1ccc(NC(=O)CC2Sc3ccccc3NC2=O)cc1` (configuration not stated), the TGI is more than 100 µM.

Turning to `Cn1cc(NC(=O)c2cc(NC(=O)CCCCCCCCCCC(=O)Nc3cc(C(=O)Nc4cc(C(=O)NCCC(=N)N)n(C)c4)n(C)c3)cn2C)cc1C(=O)NCCC(=N)N`, the TGI was more than 100 µM.

Compound `Cc1ccccc1C(C#N)C(=O)C(=O)Nc1nc([N+](=O)[O-])cs1` (configuration not stated) yielded a TGI of more than 100 µM.

Regarding `C=C1C(=O)O[C@H]2[C@H]1CC/C(CNC(=O)c1c[nH]c3ccc(F)cc13)=C\CC[C@@]1(C)O[C@@H]21`, the GI50 was 10.8 µM and the TGI is 22.7 µM.

Turning to `COC(=O)C(c1[nH]nc2ccccc12)C(C(=O)OC)c1[nH]nc2ccccc12` (configuration not stated), the TGI was more than 100 µM.

In the case of `C#CCNC(=O)NC(CCCNC(=O)OCc1ccccc1)C(=O)OCc1ccccc1` (configuration not stated), the TGI was more than 100 µM.

In the case of `COc1ccc2cc1Oc1ccc(cc1)C[C@H]1c3cc(c(OC)cc3CCN1C)Oc1c(OC)c(OC)cc3c1[C@H](C2)N(C)CC3`, the GI50 was 17.6 µM; the TGI is 15.3 µM and 34 µM and > 100 µM.

`O=c1[nH]c2ccccc2cc1C(Cl)=C(Cl)Cl`: the TGI is more than 100 µM.

Take `O=[N+]([O-])[C@@H]1C2C=CC(C2)[C@H]1Cl` (some centres not stated): the total growth inhibition concentration (TGI) is more than 100 µM.

In the case of `COC(=O)C(C#N)=C1c2ccccc2Oc2ccccc21`, the TGI was more than 100 µM.

In turn, `N#CC1(c2nc3ccccc3o2)C(=O)C(=O)N(C2C3CC4CC(C3)CC2C4)C(=O)C1=O` (configuration not stated) yielded a TGI of more than 100 µM.

`O=C1NC(c2ccc(O)cc2)C2CCC1C2` (configuration not stated): the TGI is more than 100 µM.

As for `CCOC(=O)C1(CC)CCCCC(=O)N1` (configuration not stated), the TGI was more than 100 µM.

`C=CC1=CSNN1` showed a TGI of more than 100 µM.

In turn, `O=C(C#Cc1c[nH]c(=O)[nH]c1=O)c1ccccc1Cl` yielded a TGI of more than 100 µM.

Consider `CC(=O)OC1=C2CC3(C)OC(=O)CC(C)(C)C3=CC=C2C=C(C(C)C)C1=O` (configuration not stated), for which the TGI came to 3.54 µM.

`CCCCCCCCCCCCCCCC(=O)NCC(COP(=O)([O-])OCC[N+](C)(C)C)OCC` (configuration not stated) gave a TGI of 42.6 µM.

`C=C1CCC2C(/C=C(\C)CCC1O)OC(=O)C2C` (configuration not stated): the GI50 was more than 100 µM and the TGI was more than 100 µM.

The values are drawn from PubChem BioAssay (NCI).
